SMILES strings stand for the structures.

Holding throughout (test): radiometric kinase profiling (33 PanQinase)
Assay type in all cases: biochemical

In one assay the target is T1, EPHA2 (Homo sapiens, UniProt P29317).
T1 construct: purchased Proqinase, Germany
To be noted: read-out: Inhibitory effect (%) EPHA2. In outline:
(§1)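 Enzyme/substrate mixes were incubated with [γ-33P]-ATP and compound (added as a 0.1 μM solution in 10% DMSO) at 30 °C for 60 min, then stopped with H3PO4 and washed with NaCl. 33P incorporation was scintillation-counted, and residual activity (%) was normalized to untreated control and background.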

The next assay addresses T2, CDK1_cyclinA2 (Homo sapiens, UniProt P06493).
T2 construct: purchased Proqinase, Germany
As to conditions: read-out: Inhibitory effect (%) CDK1_cyclinA2. In outline: as §1

In the next assay the target is T3, RIPK2 (Homo sapiens, UniProt O43353).
T3 construct: purchased ProQinase (33PanQinase Activity Assay)
As to conditions: read-out: Inhibitory effect (%) RIPK2. The gist of the method:
as §1

Another assay addresses T4, CLK2 (Homo sapiens, UniProt P49760).
T4 construct: purchased Proqinase, Germany
As to conditions: read-out: Inhibitory effect (%) CLK2. In outline: as §1

Another assay deals with T5, MAP3K10 (Homo sapiens, UniProt Q02779).
T5 construct: purchased ProQinase (33PanQinase Activity Assay)
To be noted: read-out: Inhibitory effect (%) MAP3K10. In outline:
as §1

The target of a further assay is T6, LCK (Homo sapiens, UniProt P06239).
T6 construct: purchased ProQinase (33PanQinase Activity Assay)
To be noted: read-out: Inhibitory effect (%) LCK. In outline:
as §1

The target of the next assay is T7, RPS6KA1 (Homo sapiens, UniProt Q15418).
T7 construct: purchased ProQinase (33PanQinase Activity Assay)
To be noted: read-out: Inhibitory effect (%) RPS6KA1. The gist of the method: as §1

A further assay addresses T8, MAPK9 (Homo sapiens, UniProt P45984).
T8 construct: purchased ProQinase (33PanQinase Activity Assay)
To be noted: read-out: Inhibitory effect (%) MAPK9. In outline:
as §1

Another assay addresses T9, FER (Homo sapiens, UniProt P16591).
T9 construct: purchased ProQinase (33PanQinase Activity Assay)
As to conditions: read-out: Inhibitory effect (%) FER. The gist of the method:
as §1

The next assay has as its target T10, MET (Homo sapiens, UniProt P08581).
T10 construct: purchased ProQinase (33PanQinase Activity Assay)
To be noted: read-out: Inhibitory effect (%) MET. In outline: as §1

A further assay has as its target T11, CDK4_cyclinD1 (Homo sapiens, UniProt P11802).
T11 construct: purchased Proqinase, Germany
To be noted: read-out: Inhibitory effect (%) CDK4_cyclinD1. The gist of the method: as §1

The target in a further assay is T12, ACVR1B (Homo sapiens, UniProt P36896).
T12 construct: purchased Proqinase, Germany
T12 sequence (P36896 24-505): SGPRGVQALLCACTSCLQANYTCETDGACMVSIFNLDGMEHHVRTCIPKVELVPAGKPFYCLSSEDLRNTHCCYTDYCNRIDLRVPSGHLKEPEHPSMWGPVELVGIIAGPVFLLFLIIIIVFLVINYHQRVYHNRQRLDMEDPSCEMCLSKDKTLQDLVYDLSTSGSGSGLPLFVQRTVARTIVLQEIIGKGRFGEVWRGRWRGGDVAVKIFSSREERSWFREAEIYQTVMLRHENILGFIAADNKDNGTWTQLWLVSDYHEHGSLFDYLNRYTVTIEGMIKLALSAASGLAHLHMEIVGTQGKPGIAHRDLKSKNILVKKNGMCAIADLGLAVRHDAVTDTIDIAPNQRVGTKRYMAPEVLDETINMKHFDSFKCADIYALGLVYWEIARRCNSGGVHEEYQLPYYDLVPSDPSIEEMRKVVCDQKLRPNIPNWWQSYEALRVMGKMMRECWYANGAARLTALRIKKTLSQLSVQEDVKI
As to conditions: read-out: Inhibitory effect (%) ACVR1B. In outline:
as §1

The next assay addresses T13, IRAK4 (Homo sapiens, UniProt Q9NWZ3).
T13 construct: purchased ProQinase (33PanQinase Activity Assay)
T13 sequence (Q9NWZ3 1-460): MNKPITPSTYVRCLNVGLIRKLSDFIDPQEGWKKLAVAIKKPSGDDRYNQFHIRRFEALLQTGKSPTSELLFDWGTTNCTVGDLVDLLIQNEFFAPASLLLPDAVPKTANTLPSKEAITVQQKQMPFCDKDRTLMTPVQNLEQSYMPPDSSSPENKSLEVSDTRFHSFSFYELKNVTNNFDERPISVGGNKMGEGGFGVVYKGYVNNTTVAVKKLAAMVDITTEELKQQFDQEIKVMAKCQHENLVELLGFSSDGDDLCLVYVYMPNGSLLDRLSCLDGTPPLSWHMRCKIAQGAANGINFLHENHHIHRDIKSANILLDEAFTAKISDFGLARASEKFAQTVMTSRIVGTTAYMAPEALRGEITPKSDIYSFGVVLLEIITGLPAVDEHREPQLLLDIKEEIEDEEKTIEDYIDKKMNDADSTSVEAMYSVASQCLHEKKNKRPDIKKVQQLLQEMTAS
To be noted: read-out: Inhibitory effect (%) IRAK4. The gist of the method:
as §1

A further assay addresses T14, LIMK1 (Homo sapiens, UniProt P53667).
T14 construct: purchased ProQinase (33PanQinase Activity Assay)
To be noted: read-out: Inhibitory effect (%) LIMK1. In outline: as §1

The target of the next assay is T15, SGK3 (Homo sapiens, UniProt Q96BR1).
T15 construct: purchased ProQinase (33PanQinase Activity Assay)
T15 sequence (Q96BR1 1-496): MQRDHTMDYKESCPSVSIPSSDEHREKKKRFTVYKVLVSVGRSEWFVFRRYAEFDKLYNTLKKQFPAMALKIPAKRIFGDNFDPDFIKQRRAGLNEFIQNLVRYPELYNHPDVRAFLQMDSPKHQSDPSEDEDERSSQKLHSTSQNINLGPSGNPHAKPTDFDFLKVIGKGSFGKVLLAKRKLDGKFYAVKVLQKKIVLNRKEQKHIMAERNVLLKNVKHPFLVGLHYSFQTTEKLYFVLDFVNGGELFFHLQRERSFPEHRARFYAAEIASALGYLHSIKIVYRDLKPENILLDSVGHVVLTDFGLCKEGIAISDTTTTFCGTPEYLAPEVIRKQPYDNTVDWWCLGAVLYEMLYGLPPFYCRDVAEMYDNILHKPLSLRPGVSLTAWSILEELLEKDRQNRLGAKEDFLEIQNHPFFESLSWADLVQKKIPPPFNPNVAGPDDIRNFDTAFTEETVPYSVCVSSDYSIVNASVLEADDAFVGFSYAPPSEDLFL
As to conditions: read-out: Inhibitory effect (%) SGK3. The gist of the method: as §1

T10 sequence (P08581 25-1390): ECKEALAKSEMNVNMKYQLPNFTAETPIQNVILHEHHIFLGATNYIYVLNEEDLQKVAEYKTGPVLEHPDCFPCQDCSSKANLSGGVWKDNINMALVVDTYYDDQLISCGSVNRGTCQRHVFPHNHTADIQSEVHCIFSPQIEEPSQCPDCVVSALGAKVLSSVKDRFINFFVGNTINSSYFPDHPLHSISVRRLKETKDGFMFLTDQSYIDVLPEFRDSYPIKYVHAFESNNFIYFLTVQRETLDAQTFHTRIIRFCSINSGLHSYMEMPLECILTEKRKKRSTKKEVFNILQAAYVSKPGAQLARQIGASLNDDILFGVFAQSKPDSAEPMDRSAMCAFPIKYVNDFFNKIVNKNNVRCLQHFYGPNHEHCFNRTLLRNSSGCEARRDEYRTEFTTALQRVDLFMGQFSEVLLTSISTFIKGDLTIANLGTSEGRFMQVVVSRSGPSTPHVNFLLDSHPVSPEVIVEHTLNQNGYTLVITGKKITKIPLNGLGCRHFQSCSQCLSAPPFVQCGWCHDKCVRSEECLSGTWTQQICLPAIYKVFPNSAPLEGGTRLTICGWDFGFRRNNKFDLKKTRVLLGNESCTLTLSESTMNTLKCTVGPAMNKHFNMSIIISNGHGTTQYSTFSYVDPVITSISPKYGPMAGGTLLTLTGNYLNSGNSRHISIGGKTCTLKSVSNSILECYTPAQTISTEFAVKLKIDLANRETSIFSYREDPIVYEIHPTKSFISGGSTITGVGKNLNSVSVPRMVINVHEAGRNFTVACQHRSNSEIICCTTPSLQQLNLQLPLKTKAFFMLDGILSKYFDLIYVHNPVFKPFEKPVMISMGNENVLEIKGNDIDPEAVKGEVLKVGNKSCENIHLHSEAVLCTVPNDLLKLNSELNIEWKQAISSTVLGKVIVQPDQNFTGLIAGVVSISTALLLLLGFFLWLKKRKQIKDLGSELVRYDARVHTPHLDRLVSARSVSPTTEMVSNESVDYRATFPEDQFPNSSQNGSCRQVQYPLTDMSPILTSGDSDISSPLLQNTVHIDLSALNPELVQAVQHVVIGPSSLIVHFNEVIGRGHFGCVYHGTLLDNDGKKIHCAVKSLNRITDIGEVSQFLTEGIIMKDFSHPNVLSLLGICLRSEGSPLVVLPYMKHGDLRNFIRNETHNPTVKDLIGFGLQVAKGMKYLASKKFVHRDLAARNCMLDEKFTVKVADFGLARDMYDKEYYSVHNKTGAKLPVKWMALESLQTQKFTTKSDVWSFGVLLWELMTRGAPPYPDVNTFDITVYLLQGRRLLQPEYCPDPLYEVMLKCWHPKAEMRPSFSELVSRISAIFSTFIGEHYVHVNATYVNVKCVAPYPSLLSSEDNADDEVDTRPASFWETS
T4 sequence (P49760 whole entry): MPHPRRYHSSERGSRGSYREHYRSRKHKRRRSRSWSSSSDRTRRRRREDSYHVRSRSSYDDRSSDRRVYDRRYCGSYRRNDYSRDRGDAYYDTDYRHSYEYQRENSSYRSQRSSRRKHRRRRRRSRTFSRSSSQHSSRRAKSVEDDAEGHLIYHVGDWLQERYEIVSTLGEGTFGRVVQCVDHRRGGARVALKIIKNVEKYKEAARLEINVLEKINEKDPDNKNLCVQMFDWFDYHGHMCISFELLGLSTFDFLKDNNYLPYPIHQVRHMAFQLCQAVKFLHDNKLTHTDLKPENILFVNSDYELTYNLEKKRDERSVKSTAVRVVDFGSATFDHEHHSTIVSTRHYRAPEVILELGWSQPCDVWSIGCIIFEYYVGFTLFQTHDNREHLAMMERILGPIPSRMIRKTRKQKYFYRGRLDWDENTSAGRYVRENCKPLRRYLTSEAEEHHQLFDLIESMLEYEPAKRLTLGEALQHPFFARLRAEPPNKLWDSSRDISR
T11 sequence (P11802 whole entry): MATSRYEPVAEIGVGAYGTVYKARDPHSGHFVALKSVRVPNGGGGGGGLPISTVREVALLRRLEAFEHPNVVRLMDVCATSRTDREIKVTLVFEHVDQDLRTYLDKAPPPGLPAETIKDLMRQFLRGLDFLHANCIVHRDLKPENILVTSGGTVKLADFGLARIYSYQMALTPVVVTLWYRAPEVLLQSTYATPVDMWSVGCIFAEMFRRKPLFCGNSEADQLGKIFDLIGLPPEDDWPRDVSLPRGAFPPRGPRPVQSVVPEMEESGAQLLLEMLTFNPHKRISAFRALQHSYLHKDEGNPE
T11 sequence (P24385 whole entry partner): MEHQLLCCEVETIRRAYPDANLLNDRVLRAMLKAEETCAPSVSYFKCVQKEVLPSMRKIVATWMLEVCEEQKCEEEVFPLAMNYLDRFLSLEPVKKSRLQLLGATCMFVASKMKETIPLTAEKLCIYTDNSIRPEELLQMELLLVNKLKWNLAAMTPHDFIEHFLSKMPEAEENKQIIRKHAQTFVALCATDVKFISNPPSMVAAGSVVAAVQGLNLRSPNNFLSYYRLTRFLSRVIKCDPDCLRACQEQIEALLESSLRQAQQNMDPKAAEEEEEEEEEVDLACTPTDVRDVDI
T7 sequence (Q15418 whole entry): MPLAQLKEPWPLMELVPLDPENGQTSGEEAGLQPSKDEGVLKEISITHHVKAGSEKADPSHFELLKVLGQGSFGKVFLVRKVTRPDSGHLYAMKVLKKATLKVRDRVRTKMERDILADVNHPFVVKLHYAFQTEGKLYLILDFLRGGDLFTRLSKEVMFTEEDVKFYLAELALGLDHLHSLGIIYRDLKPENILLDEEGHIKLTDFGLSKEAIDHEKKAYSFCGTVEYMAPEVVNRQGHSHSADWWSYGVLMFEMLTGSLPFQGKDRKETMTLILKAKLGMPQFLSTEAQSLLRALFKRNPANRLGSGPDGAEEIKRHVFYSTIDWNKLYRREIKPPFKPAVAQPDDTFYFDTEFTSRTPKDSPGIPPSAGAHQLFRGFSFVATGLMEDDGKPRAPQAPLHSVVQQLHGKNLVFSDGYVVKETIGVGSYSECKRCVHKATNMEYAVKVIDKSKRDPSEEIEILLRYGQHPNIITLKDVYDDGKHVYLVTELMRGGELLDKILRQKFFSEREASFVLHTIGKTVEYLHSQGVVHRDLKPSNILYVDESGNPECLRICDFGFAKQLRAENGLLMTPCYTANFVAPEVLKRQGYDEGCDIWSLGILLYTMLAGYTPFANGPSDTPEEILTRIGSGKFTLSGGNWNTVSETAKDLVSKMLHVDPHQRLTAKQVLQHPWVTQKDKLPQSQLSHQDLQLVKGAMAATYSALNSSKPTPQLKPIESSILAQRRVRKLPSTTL
T3 sequence (O43353 whole entry): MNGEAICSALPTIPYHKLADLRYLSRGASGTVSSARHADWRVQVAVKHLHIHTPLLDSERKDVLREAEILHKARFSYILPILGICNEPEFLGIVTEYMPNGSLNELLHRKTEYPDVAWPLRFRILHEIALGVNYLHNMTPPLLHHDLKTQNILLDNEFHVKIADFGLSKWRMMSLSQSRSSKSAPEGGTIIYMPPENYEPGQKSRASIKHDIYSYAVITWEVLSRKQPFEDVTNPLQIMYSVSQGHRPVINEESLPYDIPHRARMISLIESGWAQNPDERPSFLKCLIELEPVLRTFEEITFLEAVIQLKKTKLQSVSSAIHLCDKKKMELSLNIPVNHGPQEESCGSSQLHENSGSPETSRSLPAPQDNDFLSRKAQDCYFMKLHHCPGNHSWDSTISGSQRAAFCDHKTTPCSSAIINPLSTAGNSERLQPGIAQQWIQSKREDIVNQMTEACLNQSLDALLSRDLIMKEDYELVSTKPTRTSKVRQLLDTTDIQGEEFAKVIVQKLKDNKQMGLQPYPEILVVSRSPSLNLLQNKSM
T5 sequence (Q02779 whole entry): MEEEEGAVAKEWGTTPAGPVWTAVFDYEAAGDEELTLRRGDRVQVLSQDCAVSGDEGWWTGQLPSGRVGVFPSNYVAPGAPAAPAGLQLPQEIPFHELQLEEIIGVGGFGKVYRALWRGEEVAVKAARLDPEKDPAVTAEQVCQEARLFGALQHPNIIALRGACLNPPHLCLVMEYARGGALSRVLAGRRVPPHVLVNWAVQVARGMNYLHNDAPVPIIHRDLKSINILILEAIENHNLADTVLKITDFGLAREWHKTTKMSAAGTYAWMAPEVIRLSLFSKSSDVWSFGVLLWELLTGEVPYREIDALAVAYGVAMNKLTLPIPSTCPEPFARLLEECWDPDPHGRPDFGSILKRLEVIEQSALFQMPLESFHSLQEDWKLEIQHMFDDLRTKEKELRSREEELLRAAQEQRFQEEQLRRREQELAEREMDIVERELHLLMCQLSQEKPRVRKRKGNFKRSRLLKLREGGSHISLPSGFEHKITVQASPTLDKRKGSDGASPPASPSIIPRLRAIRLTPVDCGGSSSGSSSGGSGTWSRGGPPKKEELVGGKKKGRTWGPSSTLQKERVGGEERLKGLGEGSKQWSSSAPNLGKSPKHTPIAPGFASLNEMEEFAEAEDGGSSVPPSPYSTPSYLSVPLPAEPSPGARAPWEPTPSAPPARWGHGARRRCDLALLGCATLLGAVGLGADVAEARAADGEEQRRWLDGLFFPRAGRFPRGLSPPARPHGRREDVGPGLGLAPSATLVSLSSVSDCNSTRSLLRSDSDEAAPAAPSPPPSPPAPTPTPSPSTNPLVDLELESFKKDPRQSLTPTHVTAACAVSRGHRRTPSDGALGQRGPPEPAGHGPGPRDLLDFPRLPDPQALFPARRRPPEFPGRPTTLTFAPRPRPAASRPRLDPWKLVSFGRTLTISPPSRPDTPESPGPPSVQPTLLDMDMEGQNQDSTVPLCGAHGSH

For `c1ccc2c(-c3cnn4cc(-c5ccc(N6CCNCC6)cc5)cnc34)ccnc2c1` [LDN-193189, reference compound], the inhibition at 0.1 µM at EPHA2 was -17.2%; on CDK1_cyclinA2, -2.18%; at RIPK2, 91.1%; at CLK2 it was 34.2%; at MAP3K10, -26.4%; on LCK it was 25.4%. Further, the inhibition at 0.1 µM at RPS6KA1 was -10.4%; at MAPK9, -21.3%; on FER it was 14.4%; at MET, 1.47%; on CDK4_cyclinD1 it was -10.1%; at ACVR1B it was 23.9%. The inhibition at 0.1 µM was -6.28% at IRAK4, 8.92% on LIMK1 and -26.9% at SGK3.
In the case of `CN1CCc2cccc(c2)Nc2nccc(n2)N2CCCc3cc(ccc32)C1` [OD16], the inhibition at 0.1 µM at EPHA2 was -21.9%; at CDK1_cyclinA2, -8.88%; on RIPK2, 36.5%; at CLK2, -10%; on MAP3K10, 1.85%; at LCK, 6.7%. The inhibition at 0.1 µM on RPS6KA1 is 17%; at MAPK9, -11%; at FER, -18.9%; on MET, 5.95%; on CDK4_cyclinD1, 20.3%; at ACVR1B it was 7.78%. Besides, the inhibition at 0.1 µM on IRAK4 worked out at 4.7%; on LIMK1, 30.3%; on SGK3, 2.44%.
Regarding `CN1CCC(=O)NCCNc2ccn3ncc(c3n2)-c2cccc(c2)C1` [OD29], the inhibition at 0.1 µM on EPHA2 is 10.4%; at CDK1_cyclinA2, 23.7%; at RIPK2, 62.5%; at CLK2, 7.62%; on MAP3K10 it was 1.57%; on LCK it was 35.6%. Further, the inhibition at 0.1 µM is 5.09% at RPS6KA1; 5.44% at MAPK9; -7.91% at FER; -3.42% on MET; -13.8% on CDK4_cyclinD1; 5.71% on ACVR1B. The inhibition at 0.1 µM is 26.4% at IRAK4, 1.15% on LIMK1 and -21.9% at SGK3.

Source of the values: paper PMC8231556, “Inhibiting Endothelial Cell Function in Normal and Tumor Angiogenesis Using BMP Type I Receptor Macrocyclic Kinase Inhibitors” (Cancers, 2021).
